According to patent publication US20230100838A1 (Revolution Medicines, Inc., priority 2019, published 2023):

What was measured:
[1] = target: T1, GDP-loaded K-Ras (1-169) C51S, C80L, C118S (Homo sapiens, UniProt P01116, C118S/C51S/C80L); assay: K-Ras WT (GDP) cross-linking assay (conjugate formation, TOF mass spectrometry); type: binding; set-up: key: 0: No observed x-linking; +: 0 < x ≤ 20; ++: 20 < x ≤ 40; +++: 40 < x ≤ 100; conditions: Table 5; percent covalently modified K-Ras by MS; room temperature; typical compound conc. 2, 10, 25 μM, endpoints 1 and 24 h
T1 construct: GDP-loaded K-Ras (1-169) C51S, C80L, C118S
Procedure: (§1) Protocol: K-Ras G12D(GDP) Cross-Linking Assay
(§2) Note: while the following protocol outlines the procedure for K-Ras G12D(GDP), a person of skill in the art may substitute other Ras proteins, and may also substitute a non-hydrolyzable GTP analog for GDP to study GTP bound Ras protein.
(§3) GDP-loaded K-Ras (1-169) G12D, C51S, C80L, C118S and GDP-loaded K-Ras (1-169) C51S, C80L, C118S were adjusted to 50 μM in K-Ras assay buffer (12.5 mM HEPES, 75 mM NaCl and 1 mM MgCl2 at pH 7.4). A 5 μL aliquot of each protein solution was added to each well of a 96-well microplate containing 40 μL of assay buffer. Initial compound stocks were prepared in DMSO at 100 times their final assay concentration. Compounds were then diluted 10-fold into K-Ras assay buffer to 10 times their final concentration. A 5 μL aliquot of each diluted compound solution was added to each protein solution in the 96-well microplate to initiate the reaction, which then proceeded at room temperature. Typical final compound concentrations were 2, 10, and 25 μM. At each time point, the reactions were analyzed immediately or quenched with 5 μL of a 5% formic acid solution and kept at 4° C. until analysis. Typical assay endpoints were 1 and 24 h.
(§4) Data collection took place on an Agilent 6230 TOF Mass Spectrometer. Complete reactions were injected onto a C4 reverse-phase column to separate protein from buffer components prior to entering the mass spectrometer. The proteins were eluted from the column by increasing acetonitrile fraction in the mobile phase and fed directly into the mass analyzer. Initial analysis of raw data took place in Agilent MassHunter BioConfirm software and consisted of deconvolution of multiple protein charge states with the maximum entropy algorithm, with a mass step of 1 Da. The heights of all deconvoluted protein masses were exported for further data analysis. The percent modification of each protein was then determined by calculating the peak height of the covalently modified K-Ras species as a percentage of the sum total of K-Ras protein peak height.

[2] = target: T2, GDP-loaded K-Ras (1-169) G12D, C51S, C80L, C118S (Homo sapiens, UniProt P01116, C118S/C51S/C80L/G12D); assay: K-Ras G12D(GDP) cross-linking assay (conjugate formation, TOF mass spectrometry); type: binding; conditions: Table 5; percent covalently modified K-Ras by MS; room temperature; typical compound conc. 2, 10, 25 μM, endpoints 1 and 24 h
T2 construct: GDP-loaded K-Ras (1-169) G12D, C51S, C80L, C118S
Procedure: as §1, §2, §3, §4

Compound | WT x-linking (%) [1] | G12D x-linking (%) [2]
CO[C@@H]1CCC[C@@H]1N=C=NC1CCN(c2nc(OC[C@@H]3CCCN3C)nc3c2CCN(c2cccc4cccc(C)c24)C3)CC1 (single isomer, unassigned) [Example 149] | + (0 < x ≤ 20) | ++ (20 < x ≤ 40)
CO[C@H]1CCC[C@H]1N=C=NC1CCN(c2nc(OC[C@@H]3CCCN3C)nc3c2CCN(c2cccc4cccc(C)c24)C3)CC1 (single isomer, unassigned) [Example 150] | + (0 < x ≤ 20) | + (0 < x ≤ 20)
COCCN=C=N[C@H]1CCN(c2nc(OC[C@@H]3CCCN3C)nc3c2CCN(c2cccc4cccc(C)c24)C3)C[C@@H]1CC#N [Example 76, 2-((3S,4S)-4-((((2-methoxyethyl)imino)methylene)amino)-1-(7-(8-methylnaphthalen-1-yl)-2-(((S)-1-methylpyrrolidin-2-yl)methoxy)-5,6,7,8-tetrahydropyrido[3,4-d]pyrimidin-4-yl)piperidin-3-yl)acetonitrile] | ++ (20 < x ≤ 100) | +++ (40 < x ≤ 100)
Cc1cccc2cccc(N3CCc4c(nc(OC[C@@H]5CCCN5C)nc4N4CCN(C(=O)[C@H]5CN5Cc5ccccc5)[C@@H](CC#N)C4)C3)c12 (stereo partly drawn) [Example 96, 2-((S)-1-((R)-1-benzylaziridine-2-carbonyl)-4-(7-(8-methylnaphthalen-1-yl)-2-(((S)-1-methylpyrrolidin-2-yl)methoxy)-5,6,7,8-tetrahydropyrido[3,4-d]pyrimidin-4-yl)piperazin-2-yl)acetonitrile] | + (0 < x ≤ 20) | + (0 < x ≤ 20)
Cc1cccc2cccc(N3CCc4c(nc(OC[C@@H]5CCCN5C)nc4N4CCN(C(=O)[C@@H]5CN5Cc5ccccc5)[C@@H](CC#N)C4)C3)c12 (stereo partly drawn) [Example 97, 2-((S)-1-((S)-1-benzylaziridine-2-carbonyl)-4-(7-(8-methylnaphthalen-1-yl)-2-(((S)-1-methylpyrrolidin-2-yl)methoxy)-5,6,7,8-tetrahydropyrido[3,4-d]pyrimidin-4-yl)piperazin-2-yl)acetonitrile] | + (0 < x ≤ 20) | + (0 < x ≤ 20)
CC(=O)N1C[C@@H]1C(=O)N1CCN(c2nc(OC[C@@H]3CCCN3C)nc3c2CCN(c2cccc4cccc(C)c24)C3)C[C@@H]1CC#N [Example 98, 2-((S)-1-((R)-1-acetylaziridine-2-carbonyl)-4-(7-(8-methylnaphthalen-1-yl)-2-(((S)-1-methylpyrrolidin-2-yl)methoxy)-5,6,7,8-tetrahydropyrido[3,4-d]pyrimidin-4-yl)piperazin-2-yl)acetonitrile] | 0 | + (0 < x ≤ 20)
CC(=O)N1C[C@H]1C(=O)N1CCN(c2nc(OC[C@@H]3CCCN3C)nc3c2CCN(c2cccc4cccc(C)c24)C3)C[C@@H]1CC#N [Example 99, 2-((S)-1-((S)-1-acetylaziridine-2-carbonyl)-4-(7-(8-methylnaphthaien-1-yl)-2-(((S)-1-methylpyrrolidin-2-yl)methoxy)-5,6,7,8-tetrahydropyrido[3,4-d]pyrimidin-4-yl)piperazin-2-yl)acetonitrile] | + (0 < x ≤ 20) | + (0 < x ≤ 20)
Cc1cccc2cccc(N3CCc4c(nc(OC[C@@H]5CCCN5C)nc4N4CCN(C[C@H]5CN5)[C@@H](CC#N)C4)C3)c12 [Example 100, 2-((S)-1-(((R)-aziridin-2-yl)methyl)-4-(7-(8-methylnaphthalen-1-yl)-2-(((S)-1-methylpyrrolidin-2-yl)methoxy)-5,6,7,8-tetrahydropyrido[3,4-d]pyrimidin-4-yl)piperazin-2-yl)acetonitrile] | + (0 < x ≤ 20) | + (0 < x ≤ 20)
Cc1cccc2cccc(N3CCc4c(nc(OC[C@@H]5CCCN5C)nc4N4CCN(C[C@@H]5CN5)[C@@H](CC#N)C4)C3)c12 [Example 101, 2-((S)-1-(((S)-aziridin-2-yl)methyl)-4-(7-(8-methylnaphthalen-1-yl)-2-(((S)-1-methylpyrrolidin-2-yl)methoxy)-5,6,7,8-tetrahydropyrido[3,4-d]pyrimidin-4-yl)piperazin-2-yl)acetonitrile] | + (0 < x ≤ 20) | + (0 < x ≤ 20)
COc1ccccc1CN=C=N[C@@H]1CCN(c2nc(OC[C@@H]3CCCN3C)nc3c2CCN(c2cccc4cccc(C)c24)C3)C[C@@H]1CC#N [Example 102, 2-((3S,4R)-4-((((2-methoxybenzyl)imino)methylene)amino)-1-(7-(8-methylnaphthalen-1-yl)-2-(((S)-1-methylpyrrolidin-2-yl)methoxy)-5,6,7,8-tetrahydropyrido[3,4-d]pyrimidin-4-yl)piperidin-3-yl)acetonitrile] | + (0 < x ≤ 20) | + (0 < x ≤ 20)
COc1ccccc1CN=C=N[C@H]1CCN(c2nc(OC[C@@H]3CCCN3C)nc3c2CCN(c2cccc4cccc(C)c24)C3)C[C@@H]1CC#N [Example 103, 2-((3S,4S)-4-((((2-methoxybenzyl)imino)methylene)amino)-1-(7-(8-methylnaphthalen-1-yl)-2-(((S)-1-methylpyrrolidin-2-yl)methoxy)-5,6,7,8-tetrahydropyrido[3,4-d]pyrimidin-4-yl)piperidin-3-yl)acetonitrile] | + (0 < x ≤ 20) | + (0 < x ≤ 20)
COc1ccccc1CN=C=N[C@H]1C[C@H](Nc2nc(OC[C@@H]3CCCN3C)nc3c2CCN(c2cccc4cccc(C)c24)C3)C1 [Example 104, N-((1R,3S)-3-((((2-methoxybenzyl)imino)methylene)amino)cyclobutyl)-7-(8-methylnaphthalen-1-yl)-2-(((S)-1-methylpyrrolidin-2-yl)methoxy)-5,6,7,8-tetrahydropyrido[3,4-d]pyrimidin-4-amine] | + (0 < x ≤ 20) | + (0 < x ≤ 20)
COCCN1C[C@@H]1C(=O)N1CCN(c2nc(OC[C@@H]3CCCN3C)nc3c2CCN(c2cccc4cccc(C)c24)C3)C[C@@H]1CC#N (stereo partly drawn) [Example 105, 2-((S)-1-((R)-1-(2-methoxyethyl)aziridine-2-carbonyl)-4-(7-(8-methylnaphthalen-1-yl)-2-(((S)-1-methylpyrrolidin-2-yl)methoxy)-5,6,7,8-tetrahydropyrido[3,4-d]pyrimidin-4-yl)piperazin-2-yl)acetonitrile] | + (0 < x ≤ 20) | ++ (20 < x ≤ 40)
COCCN1C[C@H]1C(=O)N1CCN(c2nc(OC[C@@H]3CCCN3C)nc3c2CCN(c2cccc4cccc(C)c24)C3)C[C@@H]1CC#N (stereo partly drawn) [Example 106, 2-((S)-1-((S)-1-(2-methoxyethyl)aziridine-2-carbonyl)-4-(7-(8-methylnaphthalen-1-yl)-2-(((S)-1-methylpyrrolidin-2-yl)methoxy)-5,6,7,8-tetrahydropyrido[3,4-d]pyrimidin-4-yl)piperazin-2-yl)acetonitrile] | + (0 < x ≤ 20) | + (0 < x ≤ 20)
Cc1cccc2cccc(N3CCc4c(nc(OC[C@@H]5CCCN5C)nc4N4CCN(C(=O)[C@@H]5CN5C)[C@@H](CC#N)C4)C3)c12 (stereo partly drawn) [Example 107, 2-((S)-1-((S)-1-methylaziridine-2-carbonyl)-4-(7-(8-methylnaphthalen-1-yl)-2-(((S)-1-methylpyrrolidin-2-yl)methoxy)-5,6,7,8-tetrahydropyrido[3,4-d]pyrimidin-4-yl)piperazin-2-yl)acetonitrile] | 0 | + (0 < x ≤ 20)
COC(=O)[C@H]1CN1C(=O)N1CCN(c2nc(OC[C@@H]3CCCN3C)nc3c2CCN(c2cccc4cccc(C)c24)C3)C[C@@H]1CC#N [Example 108, methyl (R)-1-((S)-2-(cyanomethyl)-4-(7-(8-methylnaphthalen-1-yl)-2-(((S)-1-methylpyrrolidin-2-yl)methoxy)-5,6,7,8-tetrahydropyrido[3,4-d]pyrimidin-4-yl)piperazine-1-carbonyl)aziridine-2-carboxylate] | + (0 < x ≤ 20) | + (0 < x ≤ 20)
